Measurements from patent US20260028365A1 (BIOGEN MA INC., priority 2022, published 2026).
Where two headings read alike, the source gives them in different places.

How the values were obtained:
JH2 domain of human Tyk2 = JH2 domain of human Tyk2 (Homo sapiens (Human), UniProt P29597); experiment: JH2 Biochemical Assay (TR-FRET probe displacement); assay type: binding
Tyk2 = Tyk2 (Homo sapiens (Human), UniProt P29597); experiment: pSTAT4 Cell Assay (MSD, NK92 cells); assay type: cell-based
[1] = JH2 domain of human Tyk2, TR-FRET probe displacement
[2] = TR-FRET probe displacement, JH2 domain
[3] = TR-FRET probe displacement, JH2 domain of human Tyk2

Sequence of Tyk2 (P29597 whole entry, the tested form may be a part): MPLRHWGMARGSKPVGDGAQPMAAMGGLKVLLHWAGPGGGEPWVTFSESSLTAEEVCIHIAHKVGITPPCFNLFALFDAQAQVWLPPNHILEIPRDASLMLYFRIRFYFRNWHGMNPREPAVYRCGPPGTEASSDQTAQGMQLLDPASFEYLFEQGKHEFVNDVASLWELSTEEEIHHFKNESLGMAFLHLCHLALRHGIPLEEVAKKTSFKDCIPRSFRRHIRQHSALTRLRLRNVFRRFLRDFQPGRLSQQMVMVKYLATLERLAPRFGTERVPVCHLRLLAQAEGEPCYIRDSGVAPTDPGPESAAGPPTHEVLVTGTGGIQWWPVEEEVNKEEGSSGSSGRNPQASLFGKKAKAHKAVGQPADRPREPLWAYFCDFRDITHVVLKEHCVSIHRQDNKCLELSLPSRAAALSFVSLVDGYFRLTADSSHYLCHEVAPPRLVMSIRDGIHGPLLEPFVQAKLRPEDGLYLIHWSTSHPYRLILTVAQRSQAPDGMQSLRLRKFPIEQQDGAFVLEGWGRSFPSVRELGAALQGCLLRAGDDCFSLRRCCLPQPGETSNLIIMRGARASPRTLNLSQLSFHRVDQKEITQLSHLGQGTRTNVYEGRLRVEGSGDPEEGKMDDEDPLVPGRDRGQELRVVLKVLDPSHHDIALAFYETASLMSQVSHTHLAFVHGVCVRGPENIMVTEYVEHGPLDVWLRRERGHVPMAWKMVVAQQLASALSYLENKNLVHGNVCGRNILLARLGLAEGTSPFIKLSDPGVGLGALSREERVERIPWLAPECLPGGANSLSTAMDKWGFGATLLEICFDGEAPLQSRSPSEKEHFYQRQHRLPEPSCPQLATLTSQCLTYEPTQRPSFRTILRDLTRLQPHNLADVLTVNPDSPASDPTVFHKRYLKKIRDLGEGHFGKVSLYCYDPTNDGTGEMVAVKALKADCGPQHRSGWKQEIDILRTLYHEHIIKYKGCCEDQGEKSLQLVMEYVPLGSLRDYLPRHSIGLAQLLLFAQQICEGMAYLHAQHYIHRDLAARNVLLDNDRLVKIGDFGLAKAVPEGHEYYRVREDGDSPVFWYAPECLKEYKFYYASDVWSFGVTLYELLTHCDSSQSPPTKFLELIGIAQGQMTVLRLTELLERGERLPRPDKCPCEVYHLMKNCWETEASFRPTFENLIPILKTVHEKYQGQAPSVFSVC
Sequence of JH2 domain of human Tyk2 (P29597 575-876): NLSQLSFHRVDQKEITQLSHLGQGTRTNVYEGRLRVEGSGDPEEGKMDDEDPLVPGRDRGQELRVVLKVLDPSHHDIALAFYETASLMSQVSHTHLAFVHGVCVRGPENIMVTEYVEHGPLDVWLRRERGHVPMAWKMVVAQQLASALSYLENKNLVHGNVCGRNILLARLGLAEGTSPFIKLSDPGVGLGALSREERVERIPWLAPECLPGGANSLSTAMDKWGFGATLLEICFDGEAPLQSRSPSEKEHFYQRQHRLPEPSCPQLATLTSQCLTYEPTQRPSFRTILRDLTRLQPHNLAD

Q: For `COCCOc1ccnc(Nc2cc(NC(C)=O)ncc2-c2ccn(C)n2)n1` [Example 550, N-(4-((4-(2-methoxyethoxy)pyrimidin-2-yl)amino)-5-(1-methyl-1H-pyrazol-3-yl)pyridin-2-yl)acetamide], which IC50 (JH2 domain of human Tyk2; [1]) is on record?
A: ≤ 10 nM

Q: And the IC50 (Tyk2; MSD)?
A: 100 to 1000 nM

Q: Which IC50 (JH2 domain of human Tyk2; [2]) does the source give for `CC(=O)Nc1cc(Nc2cc(C)nc(C(C)(F)F)n2)c(-c2cnc(CN3CCCC3)cn2)cn1` [Example 791, N-(4-((2-(1,1-difluoroethyl)-6-methylpyrimidin-4-yl)amino)-5-(5-(pyrrolidin-1-ylmethyl)pyrazin-2-yl)pyridin-2-yl)acetamide] here?
A: ≤ 10 nM

Q: And the IC50 (Tyk2)?
A: ≤ 10 nM

Q: How did the IC50 (JH2 domain of human Tyk2; [1]) turn out when `CC(=O)Nc1cc(Nc2cc(C)nc(C(C)(F)F)n2)c(-c2cnc(C(C)N(C)C)cn2)cn1` (centres unmarked) [Example 741, N-(4-((2-(1,1-difluoroethyl)-6-methylpyrimidin-4-yl)amino)-5-(5-(1-(dimethylamino)ethyl)pyrazin-2-yl)pyridin-2-yl)acetamide] was run?
A: ≤ 10 nM

Q: And the IC50 (Tyk2; MSD)?
A: ≤ 10 nM

Q: With `CC(=O)Nc1cc(Nc2cc(C(C)C)nc(C(C)(F)F)n2)c(-c2ncc(F)cn2)cn1` [Example 184, N-(4-((2-(1,1-difluoroethyl)-6-isopropylpyrimidin-4-yl)amino)-5-(5-fluoropyrimidin-2-yl)pyridin-2-yl)acetamide] as the compound, how does the IC50 (JH2 domain of human Tyk2; [3]) read?
A: ≤ 10 nM

Q: And the IC50 (Tyk2; MSD)?
A: 10 to 100 nM

Q: How did the IC50 (JH2 domain of human Tyk2; [2]) turn out when `CC(=O)Nc1cc(Nc2cc(C)nc(C(C)(F)F)n2)c(-c2ccc3c(n2)OCC(C)(C)O3)cn1` [Example 813, N-(4-((2-(1,1-difluoroethyl)-6-methylpyrimidin-4-yl)amino)-5-(2,2-dimethyl-2,3-dihydro-[1,4]dioxino[2,3-b]pyridin-6-yl)pyridin-2-yl)acetamide] was run?
A: ≤ 10 nM

Q: And the IC50 (Tyk2)?
A: ≤ 10 nM

Q: Which IC50 (JH2 domain of human Tyk2; [3]) does the source give for `CC(=O)Nc1cc(Nc2cc(C)nc(C(C)(F)F)n2)c(-c2csc(N(C)C)n2)cn1` [Example 271, N-(4-((2-(1,1-difluoroethyl)-6-methylpyrimidin-4-yl)amino)-5-(2-(dimethylamino)thiazol-4-yl)pyridin-2-yl)acetamide] here?
A: ≤ 10 nM

Q: And the IC50 (Tyk2; MSD)?
A: ≤ 10 nM

Q: Which IC50 (JH2 domain of human Tyk2; [3]) does the source give for `CC(=O)Nc1cc(Nc2cc(C)nc(C(C)(F)F)n2)c(-n2cc3c(n2)CCN(C)C3)cn1` [Example 277, N-(4-((2-(1,1-difluoroethyl)-6-methylpyrimidin-4-yl)amino)-5-(5-methyl-4,5,6,7-tetrahydro-2H-pyrazolo[4,3-c]pyridin-2-yl)pyridin-2-yl)acetamide] here?
A: ≤ 10 nM

Q: And the IC50 (Tyk2; MSD)?
A: ≤ 10 nM

Q: With `CC(=O)Nc1cc(Nc2ccnc(C(C)(F)F)n2)c(-c2ncccc2F)cn1` [Example 698, N-(4′-((2-(1,1-difluoroethyl)pyrimidin-4-yl)amino)-3-fluorO[2,3′-bipyridin]-6′-yl)acetamide] as the compound, how does the IC50 (JH2 domain of human Tyk2; [1]) read?
A: 10 to 100 nM

Q: What about the IC50 (Tyk2; MSD) of the same compound?
A: 100 to 1000 nM

Q: Which results are given for `CC(=O)Nc1cc(Nc2ccnc(C(C)(F)F)n2)c(-c2cc(C)ccn2)cn1` [Example 700, N-(4′-((2-(1,1-difluoroethyl)pyrimidin-4-yl)amino)-4-methyl-[2,3′-bipyridin]-6′-yl)acetamide]?
A: IC50 (JH2 domain of human Tyk2; [1]): ≤ 10 nM; IC50 (Tyk2; MSD): 10 to 100 nM

Q: `[2H]C([2H])([2H])Oc1cnc(NC(C)=O)cc1Nc1cc(OC2CC2)nc(C(C)(F)F)n1` [Example 415, N-(4-((6-cyclopropoxy-2-(1,1-difluoroethyl)pyrimidin-4-yl)amino)-5-(methoxy-d3)pyridin-2-yl)acetamide] was tested. Which IC50 (JH2 domain of human Tyk2; [1]) did it give?
A: ≤ 10 nM

Q: What about the IC50 (Tyk2; MSD) of the same compound?
A: ≤ 10 nM

Q: What does the source list for `CCc1cc(COc2cnc(NC(C)=O)cc2Nc2cc(C)nc(C(C)(F)F)n2)on1` [Example 319, N-(4-((2-(1,1-difluoroethyl)-6-methylpyrimidin-4-yl)amino)-5-((3-ethylisoxazol-5-yl)methoxy)pyridin-2-yl)acetamide]?
A: IC50 (JH2 domain of human Tyk2; [3]): ≤ 10 nM; IC50 (Tyk2; MSD): 10 to 100 nM

Q: Which results are given for `CC(=O)Nc1cc(Nc2cc(C)nc(C(C)(F)F)n2)c(-c2nc3n(n2)CCN(C)C3)cn1` [Example 759, N-(4-((2-(1,1-difluoroethyl)-6-methylpyrimidin-4-yl)amino)-5-(7-methyl-5,6,7,8-tetrahydro[1,2,4]triazolo[1,5-a]pyrazin-2-yl)pyridin-2-yl)acetamide]?
A: IC50 (JH2 domain of human Tyk2; [2]): ≤ 10 nM; IC50 (Tyk2): 10 to 100 nM

Q: `CCc1cc(Nc2cc(NC(C)=O)ncc2-c2nnc(C)s2)nc(C(C)(F)F)n1` [Example 167, N-(4-((2-(1,1-difluoroethyl)-6-ethylpyrimidin-4-yl)amino)-5-(5-methyl-1,3,4-thiadiazol-2-yl)pyridin-2-yl)acetamide] was tested. Which IC50 (JH2 domain of human Tyk2; [3]) did it give?
A: ≤ 10 nM

Q: What about the IC50 (Tyk2; MSD) of the same compound?
A: ≤ 10 nM

Q: Which results are given for `CC(=O)Nc1cc(Nc2cc(C)nc(C(C)(F)F)n2)c(-c2ncc(F)c(C)n2)cn1` [Example 673, N-(4-((2-(1,1-difluoroethyl)-6-methylpyrimidin-4-yl)amino)-5-(5-fluorO4-methylpyrimidin-2-yl)pyridin-2-yl)acetamide]?
A: IC50 (JH2 domain of human Tyk2; [1]): 10 to 100 nM; IC50 (Tyk2; MSD): 10 to 100 nM

Q: What does the source list for `COc1nn(C)cc1COc1cnc(NC(C)=O)cc1Nc1cc(C)nc(C(C)(F)F)n1` [Example 512, N-(4-((2-(1,1-difluoroethyl)-6-methylpyrimidin-4-yl)amino)-5-((3-methoxy-1-methyl-1H-pyrazol-4-yl)methoxy)pyridin-2-yl)acetamide]?
A: IC50 (JH2 domain of human Tyk2; [1]): 100 to 1000 nM; IC50 (Tyk2; MSD): 100 to 1000 nM

Q: Which results are given for `CC(=O)Nc1cc(Nc2cncc(C(C)(C)F)c2)c(-c2ccc(C(C)(C)O)cn2)cn1` [Example 722, N-(4′-((5-(2-fluoropropan-2-yl)pyridin-3-yl)amino)-5-(2-hydroxypropan-2-yl)-[2,3′-bipyridin]-6′-yl)acetamide]?
A: IC50 (JH2 domain of human Tyk2; [1]): ≤ 10 nM; IC50 (Tyk2; MSD): ≤ 10 nM

Q: Which results are given for `CC(=O)Nc1cc(Nc2ccnc(C(C)(F)F)n2)c(-c2cnc(N3CCCC3)cn2)cn1` [Example 843, N-(4-((2-(1,1-difluoroethyl)pyrimidin-4-yl)amino)-5-(5-(pyrrolidin-1-yl)pyrazin-2-yl)pyridin-2-yl)acetamide]?
A: IC50 (JH2 domain of human Tyk2; [2]): ≤ 10 nM; IC50 (Tyk2): 10 to 100 nM

Q: With `CC(=O)Nc1cc(Nc2cc(C)nc(C(C)(F)F)n2)c(-c2cncc(CN(C)C)n2)cn1` [Example 675, N-(4-((2-(1,1-difluoroethyl)-6-methylpyrimidin-4-yl)amino)-5-(6-((dimethylamino)methyl)pyrazin-2-yl)pyridin-2-yl)acetamide] as the compound, how does the IC50 (JH2 domain of human Tyk2; [1]) read?
A: ≤ 10 nM

Q: And the IC50 (Tyk2; MSD)?
A: 100 to 1000 nM

Q: What does the source list for `COc1cnc(NC(C)=O)cc1Nc1cc(-c2cnn(C(F)F)c2)nc(C(C)(F)F)n1` [Example 375, N-(4-((2-(1,1-difluoroethyl)-6-(1-(difluoromethyl)-1H-pyrazol-4-yl)pyrimidin-4-yl)amino)-5-methoxypyridin-2-yl)acetamide]?
A: IC50 (JH2 domain of human Tyk2; [1]): 10 to 100 nM; IC50 (Tyk2; MSD): 100 to 1000 nM

Q: How did the IC50 (JH2 domain of human Tyk2; [3]) turn out when `CC(=O)Nc1cc(Nc2cc(C)nc(C(C)(F)F)n2)c(C)cn1` [Example 41, N-(4-((2-(1,1-difluoroethyl)-6-methylpyrimidin-4-yl)amino)-5-methylpyridin-2-yl)acetamide] was run?
A: 10 to 100 nM

Q: And the IC50 (Tyk2; MSD)?
A: 100 to 1000 nM

Q: For `CC(=O)Nc1cc(Nc2cc(C)nc(C(C)(F)F)n2)c(-c2cnn3c2OCCC3)cn1` [Example 535, N-(4-((2-(1,1-difluoroethyl)-6-methylpyrimidin-4-yl)amino)-5-(6,7-dihydrO5H-pyrazolo[5,1-b][1,3]oxazin-3-yl)pyridin-2-yl)acetamide], which IC50 (JH2 domain of human Tyk2; [1]) is on record?
A: 10 to 100 nM

Q: And the IC50 (Tyk2; MSD)?
A: ≥ 1000 nM

Q: Which IC50 (JH2 domain of human Tyk2; [3]) does the source give for `CC(=O)Nc1cc(Nc2cc(C)nc(C(C)(F)F)n2)c(-c2cnc(N(C)C)cn2)cn1` [Example 225, N-(4-((2-(1,1-difluoroethyl)-6-methylpyrimidin-4-yl)amino)-5-(5-(dimethylamino)pyrazin-2-yl)pyridin-2-yl)acetamide] here?
A: ≤ 10 nM

Q: What about the IC50 (Tyk2; MSD) of the same compound?
A: 10 to 100 nM
